From patent publication US9233954B2, “Organic amine salts of Azilsartan, preparation method and use thereof” (Jiangsu Hansoh Pharmaceutical Co., Ltd., priority 2011, dated 2016) come the findings set out here.

This data set is described as follows: Hygroscopicity test. The format is physicochemical. The conditions noted are these: 25° C.±1° C., RH 80%±2%, 24 h. Here is the method:
1. A dried glass weighing bottle (Outer diameter […]) with a plug was put into an artificial climate box under the temperature of 25° C.±1° C. and relative humidity (RH) of 80%±2% the day before and then weighed precisely (m1).
2. The testing sample was weighed precisely (m2) and lain into the weighing bottle. The thickness of the test sample was about 1 mm.
3. The uncovered weighing bottle and its plug were placed under the above constant temperature and humidity conditions for 24 h.
4. The weighing bottle was covered and weighed precisely (m3).
Calculation formula: Percent of weight increase=(m3−m2)/(m2−m1)*100%
5. Definition of the weight increase of the hygroscopicity
Deliquescence: absorbing enough water to form liquid.
High hygroscopicity: the weight increase of the hygroscopicity is no less than 15%
Having hygroscopicity: the weight increase of the hygroscopicity is between 15% and 2%
Slight hygroscopicity: the weight increase of the hygroscopicity is between 2% and 0.2%
No or almost no hygroscopicity: the weight increase of the hygroscopicity is less than 0.2%

For `CCOc1nc2cccc(C(=O)O)c2n1Cc1ccc(-c2ccccc2-c2noc(=O)[nH]2)cc1.CCOc1nc2cccc(C(=O)[O-])c2n1Cc1ccc(-c2ccccc2-c2noc(=O)[nH]2)cc1.C[N+](C)(C)CCO` [Example 2], the “Hygroscopicity (percent of weight increase)” value is listed as 0.02%. Moreover, the “Conclusion (hygroscopic or not)” value (listed as Example 2 Compound) is on record as “No”. Besides, where the note is “listed as example 2 compound”, the “Conclusion (hygroscopic or not)” value is listed as “not hygroscopic”.
